In US20210032344A1, “METHODS OF TREATING TUMOR” (Bristol-Myers Squibb Company, priority 2018, published 2021):

Legend:
[1] = monotherapy, every two weeks; MTD not reached; cited from earlier work
[2] = test system: patients with stage IV or recurrent NSCLC; details: in vivo
Description: Overall response rates (ORR), duration of response, and safety were exploratory endpoints. Adverse events were graded according to the National Cancer Institute Common Terminology Criteria for Adverse Events, version 4.0.

[3] = test system: stage IV or recurrent NSCLC; assay: Phase 3 trial, part 1: first-line nivolumab-based regimens vs chemotherapy; efficacy (PFS, ORR, duration of response); type: in vivo, human
Description: This trial is an open-label, multi-part phase 3 study of first-line nivolumab and nivolumab-based combinations in biomarker-selected NSCLC populations. […] The study continues for the co-primary endpoint of overall survival in PD-L1-selected patients.
Patients had chemotherapy-naive, stage IV or recurrent NSCLC.
Adult patients with PD-L1-histologically confirmed squamous or nonsquamous stage IV/recurrent NSCLC and Eastern Cooperative Oncology Group (ECOG) performance status (Oken M. M., et al. Am J Clin Oncol 5:649-55 (1982)) of 0 or 1 who had received no prior systemic anticancer therapy as primary therapy for advanced or metastatic disease were eligible for the study. All patients underwent imaging to screen for brain metastases. Patients with known EGFR mutations or ALK translocations sensitive to targeted therapy, an autoimmune disease, or untreated central nervous system metastases were excluded.
All treatments continued until disease progression, unacceptable toxicity, or completion per protocol (up to 2 years for immunotherapy). Crossover between treatment arms within the study was not permitted.
Part 1 of this study had two co-primary endpoints.

In the case of nivolumab, the “maximum tolerated dose (MTD)” value [1] is listed as greater than 10 mg/kg, the “safety / tolerability (in words)” value [2] is listed as “well tolerated” and the “median PFS” value ([3]; TMB ≥10 mutations/Mb and ≥1% PD-L1 expression) is listed as 4.2 months. For the same substance, the “median PFS” value ([3]; TMB ≥13 mutations/Mb and ≥1% PD-L1 expression) was 4.2 months and the “PFS hazard ratio (HR), nivolumab vs. chemotherapy” value ([3]; in vivo) was 0.95.
